Assay results: patent US20250250265A1, “BENZOTHIAZOLE-PHENYLSULFONYL-PIPERIDINE ANALOGS AS ACTIVATORS OF NACYLPHOSPHATIDYLETHANOLAMINE HYDROLYZING PHOSPHOLIPASE D” (priority 2022, published 2025)
Values joined by “and” are separate entries in the source; they are usually repeats but may differ in a detail not shown here. Equal entries are not always repeated. Where two headings read alike, the source gives them in different places. Marks after values point to notes of the source that are not given here.

Assays:
[1] = target: T1, recombinant mouse NAPE-PLD (Mus musculus, UniProt Q8BH82); test: In vitro fluorescence NAPE-PLD activity assay (HTS/CRC) with recombinant mouse NAPE-PLD and PED-A1; format: biochemical; conditions: for AC50 / Max % bA (%) / AC50 (nM): Table 1; for AC50 / AC50 (nM): concentration for 50% maximum activation from basal activity (no activator); for Max % bA (%): maximum induced activity compared to basal (100%) activity; for Emax (95% Cl): Table 4, maximal efficacy as fold increase in NAPE-PLD activity versus vehicle only
T1 construct: hexahistidine (His6) (C); made in house; host or cells: E. coli
T1 sequence (Q8BH82 1-396): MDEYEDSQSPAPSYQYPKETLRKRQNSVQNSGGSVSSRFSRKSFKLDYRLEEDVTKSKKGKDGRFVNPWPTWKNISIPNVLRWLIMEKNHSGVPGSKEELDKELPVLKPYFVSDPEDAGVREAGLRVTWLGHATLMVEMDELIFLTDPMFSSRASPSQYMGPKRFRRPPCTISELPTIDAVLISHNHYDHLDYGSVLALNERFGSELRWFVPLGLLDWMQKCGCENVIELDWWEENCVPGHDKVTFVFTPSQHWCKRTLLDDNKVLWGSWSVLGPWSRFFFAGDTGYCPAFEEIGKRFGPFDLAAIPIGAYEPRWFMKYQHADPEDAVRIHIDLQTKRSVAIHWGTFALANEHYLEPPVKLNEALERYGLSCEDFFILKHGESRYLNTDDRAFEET
Procedure: Using the fluorogenic NAPE substrate, PED-A1, and recombinant mouse NAPE-PLD (rNAPE-PLD), an in vitro high-throughput (HTS) assay was conducted to screen ˜40,000 compounds for their ability to modulate NAPE-PLD activity. The HTS assay enabled the detection of both NAPE-PLD activators and inhibitors. […] Initial structure-activity response studies with the top hits identified benzothiazole phenylsulfonyl-piperidine carboxamide analogs (BT-PSP analogs) as lead compounds for NAPE-PLD activators (Table 1). The lead BT-PSP analog identified, VU534, induces 50% of its activation effect on NAPE-PLD at 270 nM (AC50 270 nM), and induces a maximal effect of 195% of basal NAPE-PLD activity (Table 1).
In vitro fluorescence NAPE-PLD activity assays using recombinant NAPE-PLD and either PED-A1 or flame-NAPE as fluorogenic substrate were performed as previously described except with small modifications as noted below. See Aggarwal et al., J. Biol. Chem. 295(21): 7289-7300 (2020); Zarrow et al., J. Lipid Res. 63(1): 100156 (2022).
For the HTS assays, test compounds were incubated with recombinant enzyme for 1 h prior to adding PED-A1 (final 0.4 μM) mixed with N-palmitoyl-dioleoyl-PE (final 3.6 μM) to adjust for the high sensitivity of the Panoptic instrument (WaveFront Biosciences). Assays used black-wall, clear-bottom, non-sterile, and non-treated 384-well plates (Greiner Bio-One 781906). The assay was read in kinetic fluorescence mode on the Panoptic instrument for 4 min and the slope of the signal from 30-100 s was used for analysis. A total of 39,328 compounds from the Vanderbilt Discovery Collection were tested, each at 10 μM. The tested compounds were chosen to represent a structurally diverse selection from the full library. Each 384-well plate included 320 test compound wells and 64 control wells. Unlike previous pilot screening assays, bithionol (10 μM final) was used in place of lithocholic acid (100 μM final) as the inhibitor control. Before performing high-throughput screening, a checkerboard assay was performed to validate the assay parameters. This yielded a Z′ score of 0.676. Z′ scores were also calculated for each plate during screening, and plates with scores <0.5 were re-run. The average Z′ across all screening plates was 0.52, and the total hit rate was 3.6%. B-scores were calculated from the initial slopes across each plate using WaveGuide software (WaveFront Biosiences). Modulator hits were defined as compounds with absolute B-scores of 3 or higher. The number of compounds in various B-score ranges were as follows: […], 12 compounds; −10 to −5, 221 compounds; −5 to −3, 770 compounds; −3 to 3, 37924 compounds; 3 to 4, 314 compounds; 4 to 6, 70 compounds; 6 to 10, 15 compounds. Activator hits with B-scores of >3 were selected for the replication assay and a selection of analogs of the activators.
Concentration response curve (CRC) experiments used the same assay conditions as the HTS assay, except that graded concentrations of each test compound were used, with total amount of vehicle (DMSO) kept constant. CRC experiments with purified recombinant mouse NAPE-PLD were performed on two separate days, with values from each day normalized to vehicle only controls on same plate, and then all normalized values from both days averaged together. CRC experiments with human NAPE-PLD represent value from only a single day, due to limited amounts of this recombinant enzyme.

[2] = system: HepG2 human hepatocytoma cells; test: Cytotoxicity (MTT) in HepG2 cells; format: cell-based; conditions: Table 3; 33 μM
Procedure: (§1) Cytotoxicity was measured using MTT as previously described except that the studies used 96-well plates with 100 μL of 0.3 mg/mL MTT solution was added after 24 h of treatment and then replaced after 3 h with 0.1 M HCl in isopropanol. See Aggarwal et al., J. Biol. Chem. 295(21): 7289-7300 (2020). Viability was expressed as percent absorbance at 560 nm relative to vehicle controls.

[3] = target: T2, Fatty Acid Amide Hydrolase (FAAH) (Homo sapiens, UniProt O00519); test: FAAH activity assay (Cayman Chemicals); format: biochemical
T2 construct: purchased Cayman Chemicals
T2 sequence (O00519 1-579): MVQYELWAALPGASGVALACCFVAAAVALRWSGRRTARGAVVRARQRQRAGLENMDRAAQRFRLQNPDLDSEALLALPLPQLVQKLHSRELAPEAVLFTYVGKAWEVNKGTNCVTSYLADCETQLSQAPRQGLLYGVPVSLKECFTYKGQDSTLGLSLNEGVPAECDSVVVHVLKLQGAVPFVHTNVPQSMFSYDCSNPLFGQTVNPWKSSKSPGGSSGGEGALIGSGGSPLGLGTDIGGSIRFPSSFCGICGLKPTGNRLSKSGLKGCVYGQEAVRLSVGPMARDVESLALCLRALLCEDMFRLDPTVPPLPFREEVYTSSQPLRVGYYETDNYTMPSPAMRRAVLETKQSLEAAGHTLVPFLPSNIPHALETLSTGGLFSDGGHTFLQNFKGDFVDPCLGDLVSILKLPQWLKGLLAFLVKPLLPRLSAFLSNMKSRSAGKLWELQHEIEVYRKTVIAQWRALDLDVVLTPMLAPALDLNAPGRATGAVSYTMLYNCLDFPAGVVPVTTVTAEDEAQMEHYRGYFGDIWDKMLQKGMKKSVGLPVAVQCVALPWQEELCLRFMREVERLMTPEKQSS
Procedure: (§2) Concentration response curves were plotted for VU534 for the enzymes fatty acid amide hydrolase (FAAH) and soluble epoxide hydrolase (sEH).
(§3) The fluorescence interference assay was performed using the same method as the HTS assay, but with BODIPY-FL C5 (Thermo Fisher Scientific) used in place of PED-A1. sEH and FAAH activity assays were performed according to the manufacturer's specifications (Cayman Chemicals).

[4] = system: RAW264.7 mouse macrophages; test: Cytotoxicity (MTT) in RAW264.7 macrophages; format: cell-based
Procedure: as §1

[5] = target: T3, NAPE-PLD activity of HepG2 cells (Homo sapiens, UniProt Q6IQ20); test: Cell-based NAPE-PLD activity in HepG2 cells (flame-NAPE); conditions: Table 3; 10 μM
T3 construct: endogenous in cells; host or cells: HepG2
T3 sequence (Q6IQ20 whole entry): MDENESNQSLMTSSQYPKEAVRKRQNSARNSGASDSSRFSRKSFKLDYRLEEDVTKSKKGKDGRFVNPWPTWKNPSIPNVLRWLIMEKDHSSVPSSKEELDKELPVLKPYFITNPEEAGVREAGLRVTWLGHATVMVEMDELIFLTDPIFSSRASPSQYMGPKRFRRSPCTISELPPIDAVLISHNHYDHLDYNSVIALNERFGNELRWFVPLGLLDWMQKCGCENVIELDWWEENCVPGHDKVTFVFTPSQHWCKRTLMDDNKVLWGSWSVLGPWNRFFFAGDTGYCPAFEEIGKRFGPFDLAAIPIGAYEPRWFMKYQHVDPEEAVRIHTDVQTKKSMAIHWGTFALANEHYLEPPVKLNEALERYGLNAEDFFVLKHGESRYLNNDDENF
Procedure: In vitro models of the hepatic steatosis of non-alcoholic fatty liver disease (NAFLD) are well-established, with the primary method being incubation of primary human hepatocytes or hepatocyte cell lines such as HepG2, HuH7, HepaRG, with oleic acid and palmitic acid for 24 to 48 h, then measuring the resulting steatosis, lipid peroxidation, apoptosis, and inflammatory gene expression. Using flame-NAPE to measure NAPE-PLD activity in the human hepatoma HepG2 cell line, the experimental data confirmed that VU534 activated NAPE-PLD in human cells (AC50 940 nM; max % bA 155%). Bithionol (10 μM) reduced HepG2 flame-NAPE hydrolysis by >67%.
NAPE-PLD activity was measured in cells as previously described, except that FluoroBrite DMEM (Gibco A1896701) was used as media. See Zarrow et al., J. Lipid Res. 63(1): 100156 (2022). For RAW264.7 assays, PED-A1 (3.6 μM final) was used as the substrate with 10 μM orlistat added to inhibit PLA1 activity, while for HepG2 cells, flame-NAPE was used (with no orlistat added).

[6] = target: T4, soluble epoxide hydrolase (sEH) (Homo sapiens, UniProt P34913); test: sEH activity assay (Cayman Chemicals); format: biochemical; conditions: 33 μM compound, compared to vehicle (0%)
T4 construct: purchased Cayman Chemicals
T4 sequence (P34913 1-555): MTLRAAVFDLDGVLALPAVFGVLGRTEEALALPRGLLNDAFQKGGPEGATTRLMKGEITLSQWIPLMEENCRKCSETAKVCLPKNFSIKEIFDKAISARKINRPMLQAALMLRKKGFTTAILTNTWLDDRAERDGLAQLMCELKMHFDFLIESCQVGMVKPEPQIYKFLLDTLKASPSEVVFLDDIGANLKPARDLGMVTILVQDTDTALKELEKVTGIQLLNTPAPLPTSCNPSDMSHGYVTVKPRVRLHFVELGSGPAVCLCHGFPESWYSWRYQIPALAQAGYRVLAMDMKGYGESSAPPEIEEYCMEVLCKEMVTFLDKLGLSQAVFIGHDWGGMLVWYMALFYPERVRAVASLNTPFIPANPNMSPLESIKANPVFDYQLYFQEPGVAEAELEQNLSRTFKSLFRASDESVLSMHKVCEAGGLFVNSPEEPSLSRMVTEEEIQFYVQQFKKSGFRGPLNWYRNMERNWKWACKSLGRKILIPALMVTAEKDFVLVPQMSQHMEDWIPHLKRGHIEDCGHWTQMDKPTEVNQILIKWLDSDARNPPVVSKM
Procedure: as §2, §3

[7] = Table 2, maximal induced activity for recombinant NAPE-PLD compared to basal (100%), read-out: Emax (%)
[8] = Table 2, rNAPE-PLD activity assay, read-out: EC50
[9] = Table 3, read-out: In vitro EC50
[10] = Table 3, read-out: In vitro Emax (100% activity is baseline activity of vehicle only)
[11] = Table 2, rNAPE-PLD activity assay

Max % bA (%) [1]	Emax [1, 7]	EC50 [1, 9]	Emax [1, 10]	Emax (95% Cl) [1]	Compound	also measured
170%	170%	2400 nM	167%	1.7 (1.6-1.8) fold	Cc1ccc2nc(NC(=O)C3CCN(S(=O)(=O)c4ccc(Cl)cc4)CC3)sc2c1 [VU539]	AC50 [1]: 2380 nM; EC50 [1, 8]: 2380 nM
–	–	~2900 nM	~151%	1.6 (1.5-1.6) fold	Cc1cc(F)ccc1S(=O)(=O)N1CCC(C(=O)Nc2nc3c(C)cccc3s2)CC1 [VU212]	% HepG2 viability (33 μM) [2]: 66% and 69%; Remaining FAAH Activity (33 μM) ([3]; Table 3, 33 μM): 61% and 79%; % viability RAW 264.7 (33 μM) ([4]; Table 3, 33 μM): 32% and 56%; In-cell NAPE-PLD activity in HepG2 (10 μM) with PED-A1 or flame-NAPE as substrate [5]: 197% and 268%
–	–	–	~349%	–	Cc1ccc(S(=O)(=O)N2CCC(C(=O)Nc3nc4ccc(Cl)cc4s3)CC2)cc1 [VU572]	–
–	–	~1000 nM	171%	1.8 (1.8-1.9) fold	COc1ccc(S(=O)(=O)N2CCC(C(=O)Nc3nc4ccc(C)cc4s3)CC2)cc1 [VU601]	–
<120%	< 120%	1100 nM	183%	1.9 (1.9-2.0) fold	Cc1cccc2sc(NC(=O)C3CCN(S(=O)(=O)c4ccc(Cl)cc4)CC3)nc12 [VU542]	AC50 (nM) [1]: Not active; EC50 (μM) [1, 11]: Inactive
–	–	2600 nM	162%	2.1 (2.0-2.2) fold	COc1ccc2nc(NC(=O)C3CCN(S(=O)(=O)c4ccc(F)cc4)CC3)sc2c1 [VU484]	–
–	–	–	–	<1.2 fold	Cc1cc(F)ccc1S(=O)(=O)N1CCC(C(=O)Nc2nc3ccccc3s2)CC1 [VU205]	–
–	135%	390 nM	136%	1.7 (1.6-1.8) fold	O=C(Nc1nc2ccccc2s1)C1CCN(S(=O)(=O)c2ccc(F)cc2)CC1 [VU488]	EC50 [1, 8]: 390 nM

Second part, the molecule before the results:

Compound	Max % bA (%) [1]	Emax [1, 7]	EC50 [1, 9]	Emax [1, 10]	Emax (95% Cl) [1]	also measured
COc1ccc(S(=O)(=O)N2CCC(C(=O)Nc3nc4c(C)cccc4s3)CC2)cc1 [VU605]	170%	< 120%	~200 nM	~119%	2.1 (2.0-2.2) fold	AC50 [1]: 1040 nM; EC50 (μM) [1, 11]: Inactive
COc1cccc2sc(NC(=O)C3CCN(S(=O)(=O)c4ccc(F)cc4)CC3)nc12 [VU485]	–	–	29000 nM	232%	2.0 (1.8-4.0) fold	–
O=C(Nc1nc2ccccc2s1)C1CCN(S(=O)(=O)c2ccc(Cl)cc2)CC1 [VU541]	–	–	3300 nM	153%	–	–
Cc1cccc2sc(NC(=O)C3CCN(S(=O)(=O)c4ccc(F)cc4)CC3)nc12 [VU231]	<120%	< 120%	1100 nM	168%	2.0^d fold	AC50 (nM) [1]: Not active; EC50 (μM) [1, 11]: Inactive
Cc1cc(F)ccc1S(=O)(=O)N1CCC(C(=O)Nc2nc3c(C)cccc3s2)CC1 [MRJ-058A]	–	150%	–	–	–	inhibition at 33 µM ([3]; 33 μM compound, compared to vehicle (0%)): 20%; 33 μM Mϕ % Viability ([4]; Table 2, Mϕ, 33 μM compound): 55%; EC50 [1, 8]: 2900 nM; inhibition at 33 µM [6]: 85%
